Assay results as given in the NIST ThermoML archive (doi:10.1016/j.jct.2014.01.004).

Legend:
[1] = for viscosity / speed of sound / mass density: 101.33 kPa, Liquid; for viscosity: Falling or rolling sphere viscometry; for speed of sound: Sing-around technique in a fixed-path interferometer; for mass density: Vibrating tube method
[2] = Molar enthalpy of transition or fusion; conditions: Crystal; DSC

CC(=O)[O-].[NH3+]CCCO [3-hydroxypropylammonium acetate]
[1]
Conditions | Glass transition temperature [°C] | mass density [kg/m3] | speed of sound [m/s] | viscosity [mPa·s]
293.15 K | – | 1114.58 | 1779.8 | 4261.7
298.15 K | – | 1112.02 | 1770.8 | 2827
303.15 K | – | 1109.46 | 1761.9 | 1937
308.15 K | – | 1106.91 | 1753.3 | 1348.5
313.15 K | – | 1104.36 | 1745.2 | 970.9
318.15 K | – | 1101.8 | 1736.4 | 714.44
323.15 K | – | 1099.24 | 1727.8 | 526
328.15 K | – | 1096.68 | 1719.3 | 400.11
333.15 K | – | 1094.13 | 1710.3 | 305.97
338.15 K | – | 1091.59 | 1702.8 | 238.21
343.15 K | – | 1089.03 | 1693.6 | 190.4
DTA | -26.00 | – | – | –

O=C[O-].[NH3+]CCCO [3-hydroxypropylammonium formate]
[1]
Conditions | Glass transition temperature [°C] | mass density [kg/m3] | speed of sound [m/s] | viscosity [mPa·s]
293.15 K | – | 1148.29 | 1824.3 | 339.04
298.15 K | – | 1145.84 | 1816.3 | 257.15
303.15 K | – | 1143.39 | 1808.3 | 198.39
308.15 K | – | 1140.95 | 1800.5 | 154.49
313.15 K | – | 1138.53 | 1792.3 | 122.56
318.15 K | – | 1136.12 | 1785.2 | 98.17
323.15 K | – | 1133.73 | 1776.4 | 79.84
328.15 K | – | 1131.34 | 1768.3 | 65.37
333.15 K | – | 1128.97 | 1760.4 | 53.98
338.15 K | – | 1126.61 | 1752.5 | 45.36
343.15 K | – | 1124.25 | 1744.7 | 38.38
DTA | -24.00 | – | – | –

O=C([O-])C(F)(F)F.[NH3+]CCCO [3-hydroxypropylammonium trifluoroacetate]
[1]
Conditions | Glass transition temperature [°C] | mass density [kg/m3] | speed of sound [m/s] | viscosity [mPa·s]
293.15 K | – | 1311.44 | 1487.9 | 1430.2
298.15 K | – | 1307.81 | 1476.5 | 970.33
303.15 K | – | 1304.2 | 1465.5 | 677.32
308.15 K | – | 1300.58 | 1454.9 | 483.03
313.15 K | – | 1296.96 | 1444.5 | 352.31
318.15 K | – | 1293.34 | 1434.3 | 262.07
323.15 K | – | 1289.72 | 1424.2 | 198.79
328.15 K | – | 1286.1 | 1413.9 | 153.05
333.15 K | – | 1282.49 | 1403.6 | 119.86
338.15 K | – | 1278.88 | 1393.2 | 94.92
343.15 K | – | 1275.25 | 1382.8 | 76.72
DTA | -28.00 | – | – | –

CC(=O)[O-].CCC[NH3+] [propylammonium acetate]
[1]
Conditions | Glass transition temperature [°C] | mass density [kg/m3] | speed of sound [m/s] | viscosity [mPa·s]
293.15 K | – | 989.97 | 1517.1 | 932.22
298.15 K | – | 986.91 | 1508 | 627.41
303.15 K | – | 983.85 | 1497.1 | 435.42
308.15 K | – | 980.77 | 1487.6 | 309.95
313.15 K | – | 977.69 | 1477 | 226.35
318.15 K | – | 974.6 | 1467.8 | 167.69
323.15 K | – | 971.5 | 1457.5 | 128.15
328.15 K | – | 968.4 | 1447.9 | 99.03
333.15 K | – | 965.3 | 1437.3 | 78.03
338.15 K | – | 962.17 | 1427.4 | 61.96
343.15 K | – | 959.03 | 1417.5 | 50.02
DTA | -26.00 | – | – | –

CCC[NH3+].O=C[O-] [propylammonium formate]
[1]
Conditions | mass density [kg/m3] | speed of sound [m/s] | viscosity [mPa·s]
293.15 K | 996.18 | 1553.1 | 96.77
298.15 K | 993.47 | 1542.7 | 78.6
303.15 K | 990.77 | 1532.4 | 63.58
308.15 K | 988.09 | 1522.2 | 52.67
313.15 K | 985.42 | 1512 | 43.97
318.15 K | 982.75 | 1501.8 | 37.16
323.15 K | 980.1 | 1491.7 | 31.43
328.15 K | 977.45 | 1481.6 | 26.92
333.15 K | 974.8 | 1471.7 | 23.32
338.15 K | 972.15 | 1461.8 | 20.18
343.15 K | 969.49 | 1452 | 17.57

Conditions | Normal melting temperature [°C]
[1], Crystal, DTA | 34.00

Conditions | Molar enthalpy of transition or fusion [kcal/mol]
[2] | 2.17
